Assay results as given in ChEMBL document CHEMBL1201862, “PubChem BioAssay data set” (2004).
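Cultured in 96-well plates, cells were exposed to test compound for 48 hours across five concentrations. Abbreviation: GI50, concentration required for 50% inhibition of growth.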 Calls of active or inactive are those of the source. Cut-off read from the data, not from the text of the source: active = GI50 up to about 1.1 µM and inactive = higher.

Key:
Assay in all cases: DTP human tumour cell line panel, 48 h
A549 = system: A549
CCRF-CEM = system: CCRF-CEM
EKVX = system: EKVX
HCT-15 = system: HCT-15
IGROV-1 = system: IGROV-1
K562 = system: K562
LOX IMVI = system: LOX IMVI
NCI-H23 = system: NCI-H23
OVCAR-4 = system: OVCAR-4
RPMI-8226 = system: RPMI-8226
RXF 393 = system: RXF 393
SF-295 = system: SF-295
SF-539 = system: SF-539
SK-MEL-5 = system: SK-MEL-5
SNB-75 = system: SNB-75
SW-620 = system: SW-620
UACC-257 = system: UACC-257
786-0 = system: 786-0
TK-10 = system: TK-10
SN12C = system: SN12C

| SMILES | GI50 (A549) | GI50 (CCRF-CEM) | GI50 (EKVX) | GI50 (HCT-15) [µM] | GI50 (IGROV-1) | GI50 (K562) | GI50 (LOX IMVI) | GI50 (NCI-H23) | GI50 (OVCAR-4) | GI50 (RPMI-8226) | GI50 (RXF 393) | GI50 (SF-295) | GI50 (SF-539) | GI50 (SK-MEL-5) | GI50 (SNB-75) | GI50 (SW-620) | GI50 (UACC-257) | GI50 (786-0) | GI50 (TK-10) | GI50 (SN12C) |
| --- | --- | --- | --- | --- | --- | --- | --- | --- | --- | --- | --- | --- | --- | --- | --- | --- | --- | --- | --- | --- |
| CCCSc1nc(COC(=O)NC)c(COC(=O)NC)n1C | > 100 µM (inactive) | 20.7 µM (inactive) | > 100 µM (inactive) | > 83 | > 100 µM (inactive) | 31.4 µM (inactive) | > 100 µM (inactive) | > 78.5 µM (inactive) | > 100 µM (inactive) | 42 µM (inactive) | 37.4 µM (inactive) | > 100 µM (inactive) | > 100 µM (inactive) | > 100 µM (inactive) | > 91.2 µM (inactive) | > 95.7 µM (inactive) | > 100 µM (inactive) | – | – | – |
| CC1(C)C2CCC3(OCCO3)C1C1OC12 (stereo not drawn) | > 100 µM (inactive) | > 100 µM (inactive) | > 100 µM (inactive) | > 100 | – | > 100 µM (inactive) | > 100 µM (inactive) | > 100 µM (inactive) | > 100 µM (inactive) | > 100 µM (inactive) | > 100 µM (inactive) | > 100 µM (inactive) | > 100 µM (inactive) | > 100 µM (inactive) | 41.4 µM (inactive) | > 100 µM (inactive) | > 100 µM (inactive) | > 100 µM (inactive) | > 100 µM (inactive) | – |
| CCOC(=O)c1nc2ccc(C(F)(F)F)cc2nc1NCc1ccc(Cl)c(Cl)c1 | 35.2 µM (inactive) | > 100 µM (inactive) | 22.8 µM (inactive) | 36.1 | 20.7 µM (inactive) | 80 µM (inactive) | 30.8 µM (inactive) | 40 µM (inactive) | 21 µM (inactive) | > 100 µM (inactive) | 24.4 µM (inactive) | 29.8 µM (inactive) | 61.9 µM (inactive) | 31.9 µM (inactive) | 14 µM (inactive) | 40 µM (inactive) | 42.4 µM (inactive) | 25.1 µM (inactive) | 34.2 µM (inactive) | – |
| O=c1oc2ccccc2cc1-c1cn2cc(Cl)ccc2n1 | 0.719 µM (active) | – | 21.6 µM (inactive) | 0.298 | 0.685 µM (active) | 0.495 µM (active) | 0.698 µM (active) | 3.09 µM (inactive) | 2.46 µM (inactive) | 0.532 µM (active) | 2.28 µM (inactive) | 0.535 µM (active) | 1.48 µM (inactive) | 0.782 µM (active) | 1.76 µM (inactive) | 0.361 µM (active) | 4.58 µM (inactive) | 1 µM (active) | 7.53 µM (inactive) | 2.98 µM (inactive) |
| Cc1ccc(NC(=O)/C(=N\Nc2ccc([N+](=O)[O-])cc2[N+](=O)[O-])C2C(=O)NC(=O)NC2=O)cc1 | 50.9 µM (inactive) | 31.8 µM (inactive) | – | 6.31 | 43.2 µM (inactive) | 26.2 µM (inactive) | > 100 µM (inactive) | > 100 µM (inactive) | 65.5 µM (inactive) | 70 µM (inactive) | 48.9 µM (inactive) | 46.1 µM (inactive) | 17.9 µM (inactive) | 33.2 µM (inactive) | 26.7 µM (inactive) | 45.7 µM (inactive) | > 100 µM (inactive) | > 100 µM (inactive) | > 100 µM (inactive) | > 100 µM (inactive) |
| O=C1c2ccccc2C(=O)c2cc(/N=N/c3c(O)ccc4ccccc34)ccc21 | > 100 µM (inactive) | > 100 µM (inactive) | 89.7 µM (inactive) | > 100 | > 100 µM (inactive) | > 100 µM (inactive) | > 100 µM (inactive) | > 100 µM (inactive) | > 100 µM (inactive) | > 100 µM (inactive) | > 100 µM (inactive) | > 100 µM (inactive) | – | > 100 µM (inactive) | > 100 µM (inactive) | > 100 µM (inactive) | > 100 µM (inactive) | > 100 µM (inactive) | > 100 µM (inactive) | > 100 µM (inactive) |
| O=C1c2sc(-c3ccc(F)cc3)cc2-n2cccc21 | 26 µM (inactive) | 28.5 µM (inactive) | 1.89 µM (inactive) | 51.3 | 8.39 µM (inactive) | 10.2 µM (inactive) | 32.1 µM (inactive) | – | 28.1 µM (inactive) | 23.3 µM (inactive) | 23.5 µM (inactive) | 25.1 µM (inactive) | – | 38.5 µM (inactive) | 18.4 µM (inactive) | 47.6 µM (inactive) | 47.5 µM (inactive) | 16.9 µM (inactive) | 21.9 µM (inactive) | 19.4 µM (inactive) |
| CN(COC(=O)C(C)(C)C)c1nc(N(C)COC(=O)C(C)(C)C)nc(N(C)COC(=O)C(C)(C)C)n1 | < 0.01 µM (active) | 16.7 µM (inactive) | > 100 µM (inactive) | 21 | > 100 µM (inactive) | 24 µM (inactive) | – | > 100 µM (inactive) | 82.4 µM (inactive) | – | 21 µM (inactive) | 94.6 µM (inactive) | > 100 µM (inactive) | 33.2 µM (inactive) | 50.2 µM (inactive) | 22 µM (inactive) | 98.2 µM (inactive) | 28.6 µM (inactive) | > 100 µM (inactive) | > 100 µM (inactive) |
| Cc1ccc(-c2nnc3s/c(=C\c4ccc(N(C)C)cc4)c(=O)n23)cc1 | > 100 µM (inactive) | > 100 µM (inactive) | > 100 µM (inactive) | – | > 100 µM (inactive) | > 10 µM (inactive) | > 100 µM (inactive) | > 100 µM (inactive) | > 100 µM (inactive) | > 100 µM (inactive) | > 100 µM (inactive) | > 100 µM (inactive) | > 100 µM (inactive) | > 100 µM (inactive) | 65.2 µM (inactive) | > 100 µM (inactive) | 11.7 µM (inactive) | > 100 µM (inactive) | > 100 µM (inactive) | > 100 µM (inactive) |
| O=S(=O)(N/N=C/c1c(Cl)cccc1Cl)c1ccccc1 | > 100 µM (inactive) | 66.1 µM (inactive) | > 100 µM (inactive) | > 100 | > 100 µM (inactive) | > 100 µM (inactive) | > 100 µM (inactive) | > 100 µM (inactive) | > 100 µM (inactive) | > 100 µM (inactive) | 55.5 µM (inactive) | > 100 µM (inactive) | > 100 µM (inactive) | > 100 µM (inactive) | 31.3 µM (inactive) | > 100 µM (inactive) | > 100 µM (inactive) | – | > 100 µM (inactive) | > 100 µM (inactive) |
| O=C(c1cccs1)N(C(=S)N1CCN(c2ccccc2)CC1)c1ccccc1 | > 100 µM (inactive) | > 100 µM (inactive) | – | > 100 | > 100 µM (inactive) | > 100 µM (inactive) | > 100 µM (inactive) | > 100 µM (inactive) | > 100 µM (inactive) | > 100 µM (inactive) | > 100 µM (inactive) | > 100 µM (inactive) | > 100 µM (inactive) | > 100 µM (inactive) | > 100 µM (inactive) | > 100 µM (inactive) | > 100 µM (inactive) | > 100 µM (inactive) | > 100 µM (inactive) | > 100 µM (inactive) |
| O=C1/C(=C/c2cccs2)N=C(c2ccccc2)N1C1Nc2cc3c(cc2S1)NC(N1C(=O)/C(=C/c2cccs2)N=C1c1ccccc1)S3 (stereo not drawn) | 14.6 µM (inactive) | – | 15.6 µM (inactive) | 15.6 | 32.1 µM (inactive) | 40.9 µM (inactive) | 15 µM (inactive) | 17.4 µM (inactive) | 24.9 µM (inactive) | 19.8 µM (inactive) | 23.3 µM (inactive) | 60.1 µM (inactive) | 14 µM (inactive) | 17 µM (inactive) | 25.4 µM (inactive) | 26.9 µM (inactive) | 71.9 µM (inactive) | 16.4 µM (inactive) | 41.5 µM (inactive) | – |
| CC(=O)c1cccc(NC(=O)C(=O)C(C(=O)c2ccccc2F)C2OC(=O)c3ccccc32)c1 (stereo not drawn) | 54.8 µM (inactive) | 14.8 µM (inactive) | 43.4 µM (inactive) | 30.2 | 74.8 µM (inactive) | 32.1 µM (inactive) | 19.5 µM (inactive) | 33.8 µM (inactive) | 32.5 µM (inactive) | 20.3 µM (inactive) | 28.1 µM (inactive) | 42.6 µM (inactive) | > 10 µM (inactive) | 64 µM (inactive) | 25.8 µM (inactive) | 99.5 µM (inactive) | 73.5 µM (inactive) | – | > 100 µM (inactive) | 27.1 µM (inactive) |
| C/C(=C/c1c(C)[nH]c(=O)[nH]c1=O)C(=O)O | > 1370 µM (inactive) | > 1370 µM (inactive) | 1290 µM (inactive) | > 1370 | > 1370 µM (inactive) | > 1370 µM (inactive) | > 1370 µM (inactive) | > 1370 µM (inactive) | > 1370 µM (inactive) | > 1370 µM (inactive) | > 1370 µM (inactive) | > 1370 µM (inactive) | > 1370 µM (inactive) | > 1370 µM (inactive) | > 1370 µM (inactive) | > 1370 µM (inactive) | > 1370 µM (inactive) | – | – | > 1370 µM (inactive) |
| COc1cccc(-c2[nH]c3cc4c(cc3c(=O)c2C(=O)O)OCO4)c1 | 44.7 µM (inactive) | 27.4 µM (inactive) | 79.1 µM (inactive) | 28.4 | 37.8 µM (inactive) | 34.5 µM (inactive) | 42.3 µM (inactive) | 31.9 µM (inactive) | 28.6 µM (inactive) | 41.2 µM (inactive) | 39.2 µM (inactive) | 23.8 µM (inactive) | 28.8 µM (inactive) | 31 µM (inactive) | 84.1 µM (inactive) | 29 µM (inactive) | > 100 µM (inactive) | 44.8 µM (inactive) | – | 40.6 µM (inactive) |
